Where two headings read alike, the source gives them in different places.
Columns and labels:
PDE4B2 = biological target: T1, PDE4B2 (Homo sapiens, UniProt Q07343); test: Effect of compounds on PDE4B2 activity (fluorescence polarization kit); format: biochemical
T1 construct: purchased BPS Bioscience 60343
Experimental: The effect of compounds on PDE4B2 activity was detected by a fluorescence polarization kit (BPS Bioscience, Catalog #60343). According to the instructions of the kit, FAM-Cyclic-3′,5′-AMP at a final concentration of […], 1 ng/well of PDE4B2 (PDE buffer was added to the negative control well), and a compound diluted in a gradient manner (PDE buffer containing 10% DMSO was added to the positive control well) were added to each well, fully mixed, and then reacted at room temperature for 1 h. The Binding Agent was diluted with the Binding Agent Diluent (cAMP) at a ratio of 1:100 for later use, the Binding Agent dilution was taken and added to the test plate at 50 μl/well and incubated at room temperature with slow shaking for 20 minutes. After the incubation was complete, Envision was used for FP detection, with Excitation at 480 nm and Emission at 535 nm. FP was usually represented by mP value.
[formula] • I∥ (S535): fluorescence intensity in parallel direction • I⊥ (P535): fluorescence intensity in perpendicular direction • G: G factor=1
(§1) [formula] • mP(sample): mP of the test compound in a reaction well • mP(negative control): mP in the negative control well • mP(positive control): mP in the positive control well
(§2) According to the calculated inhibition rate at each concentration, the IC50 value of each compound was calculated by GraphPad Prism 8 software.

PDE4D2 = biological target: T2, PDE4D2 (Homo sapiens, UniProt Q08499); test: Effect of compounds on PDE4D2 activity (fluorescence polarization kit); format: biochemical; conditions: class symbols
T2 construct: purchased BPS Bioscience 60345
Experimental: The effect of compounds on PDE4D2 activity was detected by a fluorescence polarization kit (BPS Bioscience, Catalog #60345). During the reaction, 12.5 μL of 0.272 ng/well of an enzyme (final concentration: 0.068 ng/well) and 12.5 μL of the compound diluted in a gradient manner (DMSO concentration: 4%) were first pre-incubated at room temperature for 15 minutes, the same volume of the enzyme at the same concentration and 12.5 μL of PDE buffer containing 4% DMSO were added to the positive control well, and 25 μL of PDE buffer containing 2% DMSO was added to the negative control well. After completion, 25 μL of […] FAM-Cyclic-3′,5′-AMP (final concentration: […]) was added to each well, fully mixed, and then incubated at room temperature with slow shaking for 30 minutes. The Binding Agent was diluted with the Binding Agent Diluent (cAMP) at a ratio of 1:100 for later use, 100 μl/well of the Binding Agent dilution was taken and added to all wells of the test plate and incubated at room temperature with slow shaking for 1 hour.
After the incubation was complete, BMG LRBTECH microplate reader was used for FP detection, with Excitation at 485 nm and Emission at 520 nm. FP was usually represented by mP value.
[formula] • I∥ (S520): fluorescence intensity in parallel direction • I⊥ (P520): fluorescence intensity in perpendicular direction • G: G factor=1
as §1, §2

[1] = Inhibition of LPS-induced TNF-α release from human peripheral blood mononuclear cells in vitro; format: cell-based; conditions: PBMC, hPBMC, 100 ng/mL LPS, 4 h; for IC50: class symbols, read-out: Re IC50 (nM) (relative IC50), TNF-α induced by LPS; for Emax: read-out: Max inhibition (%)
Experimental: Normal human peripheral blood which was anticoagulated (citric acid anticoagulation) was collected, and hPBMCs were prepared by Ficoll-Paque PLUS (Cytiva, Cat #17144002, density 1.077 g/mL). The concentration of hPBMC cells was adjusted to 0.25×10^6 cells/mL with RPMI1640 medium and inoculated into a 96-well plate in an amount of 50000 cells per well. Subsequently, different concentrations of drugs were added for pre-incubation for 1 h (the DMSO final concentration was 0.1%, and the positive and negative control wells had the same volume of RPMI1640 containing 0.1% DMSO). After the pre-incubation was complete, 100 ng/mL LPS (SIGMA, L2630) was added to the compound and positive control wells, and the negative control well had the same volume of RPMI1640 containing 0.1% DMSO. Incubation was carried out for 4 h in an incubator at 37° C. and 5% CO2. The cell supernatant was collected, and the content of TNF-α in the supernatant sample was detected by human TNF-α Elisa quantitative test kit (Sino Biological, Cat #KIT10602). The IC50 value was calculated using GraphPad Prism software.

PDE4B1 = biological target: T3, PDE4B1 (Homo sapiens, UniProt Q07343); test: Effect of compounds on PDE4B1 activity (IMAP fluorescence polarization kit); format: biochemical; conditions: class symbols
T3 construct: purchased BPS 60041
Experimental: The IMAP Reaction Buffer containing 0.1% BSA (5×) in the kit was diluted into a 1-fold reaction buffer containing 1 mM DTT. 0.12 nM PDE4B1 (BPS, Cat #60041) was added to the 1-fold reaction buffer to form a 2-fold enzyme solution. 10 μL of the 2-fold enzyme solution was added to wells of a 384-well reaction plate. For the negative control well, 10 μL of the 1-fold reaction buffer was used instead of the enzyme solution. Centrifugation at 1000 rpm for 1 minute and incubation at room temperature for 15 minutes were carried out. 0.2 uM FAM-labeled cAMP (FAM-cAMP, Molecular Device, Cat #R7506) was added to the 1-fold reaction buffer to form a 2-fold substrate solution. 10 μL of the 2-fold substrate solution was added to each well of the 384-well reaction plate. Centrifugation at 1000 rpm for 1 minute was carried out. A reaction was carried out at room temperature for 20 minutes. IMAP Progressive Binding Buffer A (5×), IMAP Progressive Binding Buffer B (5×), and IMAP Progressive Binding Reagent (provided by IMAP FP IPP Explorer Kit) were prepared into a reaction stop solution according to the instructions for use. 60 μL of an […] reaction stop solution was added to each well of the 384-well reaction plate to stop the reaction, and the reaction product was centrifuged at 1000 rpm for 1 minute. Incubation at room temperature in the dark for 60 minutes was carried out. The mP values (Ex480/Em535 (s), Em535 (p)) were read by a microplate reader (Envision).
FP was usually represented by mP value. mP value for FP measurement=1000*(S−G*P)/(S+G*P) • S: fluorescence intensity in parallel direction • P: fluorescence intensity in perpendicular direction • G: G factor=1
as §1
According to the calculated inhibition rate at each concentration, the IC50 value of each compound was calculated by XLFit excel add-in version 5.4.0.8 software.
Y=Bottom+(Top−Bottom)/(1+(IC50/X)^HillSlope) Fitting formula: […]

[2] = Pharmacokinetic test in mice; format: in vivo, ICR mice
Experimental: 5.1 Experimental animals: Male ICR mice, 20-25 g, 6 mice/compound. Purchased from Chengdu Ddossy Experimental Animals Co., Ltd.
5.2 Experimental design: On the day of the experiment, 42 ICR mice were randomly grouped according to their body weights. The animals were fasted with water available for 12-14 h one day before administration and fed 4 h after administration.
Before and after administration, 0.06 mL of blood was taken from the orbit under isoflurane anesthesia and placed in an EDTAK2 centrifuge tube for centrifugation at 5000 rpm at 4-C for 10 min, followed by plasma collection. The blood collection time points for the intravenous group and intragastric group were both 0 m, 5 mi, 15 mi, 30 mi, 1 h, 2 h, 4 h, 6 h, 8 h, and 24 h. Before analysis and detection, all the samples were stored at −80° C., and the samples were subjected to quantitative analysis using LC-MS/MS.

[3] = Pharmacokinetic test in beagle dogs; format: in vivo
Experimental: 6.1 Experimental animals: male beagle dogs, about 8-11 kg, 6 beagle dogs/compound, purchased from Beijing Marshall Biotechnology Co., Ltd.
6.2 Experimental method: On the day of the experiment, 18 beagle dogs were randomly grouped according to their body weights. The animals were fasted with water available for 12-14 h one day before administration and fed 4 h after administration. Administration was carried out according to Table 8.
Before and after administration, 1 ml of blood was taken from the jugular vein or limb vein and placed in an EDTAK2 centrifuge tube. Centrifugation was carried out at 5000 rpm at 4° C. for 10 min, and plasma was collected. The blood collection time points for the intravenous group and intragastric group were both 0 min, 5 min, 15 min, 30 min, 1 h, 2 h, 4 h, 6 h, 8 h, 10 h, 12 h, 24 h, 48 h, and 72 h. Before analysis and detection, all the samples were stored at −80° C., and the samples were subjected to quantitative analysis using LC-MS/MS.

[4] = class symbols, read-out: PDE4B2 IC50
[5] = male, ICR, mouse, iv, plasma, i.v. (5 mg/kg)
[6] = male, ICR, mouse, po, plasma, i.g. (10 mg/kg)
[7] = male, dog, iv, plasma, i.v. (1 mg/kg)
[8] = male, dog, po, plasma, i.g. (5 mg/kg)

T2 sequence (Q08499 303-809): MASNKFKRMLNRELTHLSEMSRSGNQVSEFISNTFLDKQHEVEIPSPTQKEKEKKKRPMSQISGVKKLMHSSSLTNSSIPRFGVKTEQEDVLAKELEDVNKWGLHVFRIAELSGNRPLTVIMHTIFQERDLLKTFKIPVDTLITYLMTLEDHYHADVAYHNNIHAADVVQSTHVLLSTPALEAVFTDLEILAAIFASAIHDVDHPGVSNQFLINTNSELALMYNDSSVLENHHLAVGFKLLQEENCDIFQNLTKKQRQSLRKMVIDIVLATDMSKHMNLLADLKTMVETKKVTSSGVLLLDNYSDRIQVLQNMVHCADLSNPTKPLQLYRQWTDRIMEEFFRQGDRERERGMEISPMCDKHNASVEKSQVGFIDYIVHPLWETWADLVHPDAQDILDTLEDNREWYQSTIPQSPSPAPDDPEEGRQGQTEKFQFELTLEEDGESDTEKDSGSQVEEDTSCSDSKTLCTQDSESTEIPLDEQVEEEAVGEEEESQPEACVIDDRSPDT
T1 sequence (Q07343 1-564 isoform Q07343-2): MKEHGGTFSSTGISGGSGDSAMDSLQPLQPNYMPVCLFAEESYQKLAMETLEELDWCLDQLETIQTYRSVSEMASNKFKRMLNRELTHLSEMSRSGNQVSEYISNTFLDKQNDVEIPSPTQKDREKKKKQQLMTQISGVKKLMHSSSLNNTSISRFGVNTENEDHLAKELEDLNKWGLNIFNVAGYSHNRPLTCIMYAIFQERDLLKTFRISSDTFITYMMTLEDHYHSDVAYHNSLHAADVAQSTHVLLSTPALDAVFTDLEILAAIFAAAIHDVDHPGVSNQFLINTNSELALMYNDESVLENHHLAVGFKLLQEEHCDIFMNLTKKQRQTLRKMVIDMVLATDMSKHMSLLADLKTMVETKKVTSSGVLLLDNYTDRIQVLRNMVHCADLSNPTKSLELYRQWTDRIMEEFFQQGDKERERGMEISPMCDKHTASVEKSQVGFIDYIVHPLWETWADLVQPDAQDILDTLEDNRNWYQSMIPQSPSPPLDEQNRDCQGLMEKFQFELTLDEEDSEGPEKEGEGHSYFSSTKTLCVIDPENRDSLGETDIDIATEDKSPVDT
T3 sequence (Q07343 whole entry): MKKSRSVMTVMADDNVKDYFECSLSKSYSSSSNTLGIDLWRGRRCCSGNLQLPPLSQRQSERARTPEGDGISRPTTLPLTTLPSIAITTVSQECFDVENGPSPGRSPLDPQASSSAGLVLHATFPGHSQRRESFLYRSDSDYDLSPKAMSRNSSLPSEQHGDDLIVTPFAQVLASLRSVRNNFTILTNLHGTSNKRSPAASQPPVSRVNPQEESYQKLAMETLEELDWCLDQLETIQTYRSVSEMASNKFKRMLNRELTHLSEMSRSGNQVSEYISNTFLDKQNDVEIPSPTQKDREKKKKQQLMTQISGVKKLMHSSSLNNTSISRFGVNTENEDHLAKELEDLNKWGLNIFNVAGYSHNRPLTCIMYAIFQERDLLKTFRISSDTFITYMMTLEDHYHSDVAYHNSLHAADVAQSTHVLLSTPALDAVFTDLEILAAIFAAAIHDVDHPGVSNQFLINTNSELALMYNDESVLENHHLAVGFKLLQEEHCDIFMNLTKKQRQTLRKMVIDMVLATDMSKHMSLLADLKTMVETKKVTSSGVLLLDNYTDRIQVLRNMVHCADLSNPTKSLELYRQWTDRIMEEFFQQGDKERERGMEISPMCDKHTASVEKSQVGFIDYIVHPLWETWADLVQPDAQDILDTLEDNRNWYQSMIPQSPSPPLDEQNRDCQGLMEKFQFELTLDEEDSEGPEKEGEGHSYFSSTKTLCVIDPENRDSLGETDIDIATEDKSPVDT

Row | SMILES | IC50 (PDE4B2; [4]) | IC50 (PDE4D2) | IC50 [1] | Emax [1] | further results
1 | [O-][S@+]1CCc2nc(N3CCC=C(c4ccc5c(c4)CC5)CC3)nc(NC3(CO)CCC3)c21 [Compound 27] | – | < 10 nM | – | – | IC50 (PDE4B1): < 10 nM
2 | [O-][S+]1CCc2nc(N3CCC4=C(COc5cc(Cl)ccc54)C3)nc(NC3(CO)CCC3)c21 (stereo not drawn) [Compound 29] | – | < 10 nM | – | – | IC50 (PDE4B1): < 10 nM
3 | N#Cc1ccc2c(c1)OCC1CN(c3nc4c(c(NC5(CO)CCC5)n3)[S+]([O-])CC4)CCN21 (single isomer, unassigned) [Compound 74-1] | < 10 nM | < 10 nM | 10 to 50 nM | 72.4% | –
4 | [O-][S@+]1CCc2nc(N3CC=C(c4ncc5c(n4)COB5O)CC3)nc(NC3(CO)CCC3)c21 [Compound 79] | < 10 nM | 10 to 50 nM | < 10 nM | 61.5% | –
5 | [O-][S@+]1CCc2nc(N3C[C@H]4CN(c5ncc6c(n5)CC6)C[C@H]4C3)nc(NC3(CO)CCC3)c21 [Compound 65] | < 10 nM | < 10 nM | 10 to 50 nM | 82% | –
6 | [O-][S@+]1CCc2nc(N3CCC=C(c4ccc(Cl)cc4)CC3)nc(NC3(CO)CCC3)c21 [Compound 5] | < 10 nM | < 10 nM | – | – | IC50 (PDE4B2; values in text, read-out: IC50 against PDE4B2): 8.1 nM; F ([2]; i.g. (10 mg/kg)): 91.9 ± 7.5%; AUC(0-t) [2, 5]: 7400 ± 1110 ng·h/mL; clearance [2, 5]: 5.71 ± 0.86 mL/min/kg; half-life [2, 5]: 2.72 ± 0.23 h; Vd ([2]; male, ICR, mouse, iv, plasma, i.v. (5 mg/kg), read-out: Vdss): 1.31 ± 0.12 L/kg; AUC(0-t) [2, 6]: 27200 ± 2230 ng·h/mL; half-life [2, 6]: 3.42 ± 0.16 h; F ([3]; i.g. (5 mg/kg)): ≥98%; AUC(0-t) [3, 7]: 1200 ± 210 ng·h/mL; clearance [3, 7]: 13.8 ± 2.3 mL/min/kg; half-life [3, 7]: 3.91 ± 0.037 h; Vd ([3]; male, dog, iv, plasma, i.v. (1 mg/kg), read-out: Vdss): 4.16 ± 0.76 L/kg; AUC(0-t) [3, 8]: 5020 ± 1700 ng·h/mL; half-life [3, 8]: 6.32 ± 2.1 h

Continued, in another order:

Row | IC50 (PDE4B2; [4]) | IC50 (PDE4D2) | IC50 [1] | SMILES | Emax [1] | further results
7 | < 10 nM | < 10 nM | < 10 nM | [O-][S@+]1CCc2nc(N3CC=C(c4ccc(Cl)c5c4CC5)CC3)nc(NC3(CO)CCC3)c21 [Compound 83] | 77.7% | –
8 | < 10 nM | < 10 nM | 10 to 50 nM | [O-][S@+]1CCc2nc(N3CC=C(c4ccc5c(c4)COB5O)CC3)nc(NC3(CO)CCC3)c21 [Compound 66] | 79.3% | –
9 | < 10 nM | < 10 nM | 10 to 50 nM | Cc1nnc(C2=CCN(c3nc4c(c(NC5(CO)CCC5)n3)[S@+]([O-])CC4)CC2)o1 [Compound 55] | 67.2% | –

From patent publication US20250326765A1, “PDE4B INHIBITOR AND USE THEREOF” (XIZANG HAISCO PHARMACEUTICAL CO., LTD., priority 2022, published 2025)
